Experimental data from US20240216343A1, “ENDOTHELIAL IK AND SK CHANNEL ACTIVATION TO TREAT PULMONARY HYPERTENSION” (UNIVERSITY OF VIRGINIA PATENT FOUNDATION, priority 2023, published 2024).
Entries after “also recorded” stand apart in the source; their conditions may differ.

Experiments:
[1] = system: fourth-order PAs; assay: Pressure myography of mouse fourth-order PAs
Source text: Mouse fourth-order PAs (˜50 μm) were cannulated on glass micropipettes in a pressure myography chamber (The Instrumentation and Model Facility; University of Vermont; Burlington; VT; USA) and pressurized to a physiological pressure of 15 mm Hg (24). Briefly, freshly dissected lungs were placed in ice cold HEPES buffer in a dissection plate. The left lung was stretched and pinned down, with ventral side facing up. First, pulmonary veins, and then the airway were cut open to gain access to the pulmonary arteries underneath. Once PAs were visible, they were gently separated from surrounding tissue (25). Arteries were superfused with bicarbonate-physiological salt solution (PSS; 119 mmol/L NaCl; 4.7 mmol/L KCl; 1.2 mmol/L KH2PO4; 1.2 mmol/L MgCl2 hexahydrate; 2.5 mmol/L CaCl2) dihydrate; 7 mmol/L dextrose; and 24 mmol/L NaHCO3) at 37° ° C. and bubbled with 20% O2/5% CO2 to maintain the pH at 7.4. Approximately 20% PAs from normal mice develop myogenic tone, whereas ˜65% PA from Su+CH mice show myogenic tone at 15 mm Hg. Due to the relatively small percentage of PAs from normal mice showing myogenic tone, we pre-constricted all PAs with 30 nmol/L U46619 (a thromboxane A2 receptor agonist). […] U46619 was added to the chamber immediately, before the arteries could develop myogenic tone. Before measuring vascular reactivity, arteries were treated with NS309 (1 μmol/L), a direct activator of endothelial IK/SK channels, to assess endothelial health. […] Changes in arterial diameter were recorded at a 60-ms frame rate using a charge-coupled device camera and edge-detection software (IonOptix LLC; Westwood; MA; USA) (11, 26). At the end of each experiment, Ca^2+-free PSS (119 mmol/L NaCl; 4.7 mmol/L KCl; 1.2 mmol/L KH2PO4; 1.2 mmol/L MgCl2 hexahydrate; 7 mmol/L dextrose; 24 mmol/L NaHCO3; and 5 mmol/L EGTA) was applied to assess the maximum passive diameter. Percent constriction was calculated by:
[formula] • where Diameterbefore is the diameter of the artery before treatment and Diameterafter is the diameter after treatment. Percent dilation was calculated by:
[formula] • where Diameterbasal is the stable diameter before drug treatment, Diameterdilated is the diameter after drug treatment, and Diameterca-free is the maximum passive diameter.

[2] = system: IK/SK channels in SMCs from PAs; assay: Whole-cell patch-clamp in freshly isolated SMCs from small PAs; type: cell-based, mouse; conditions: TRAM-34 1 μmol/L and Apa 300 nmol/L added together after NS309 1 μmol/L; SMCs from control or Su+CH mice
Experimental: For SMC isolation (27), arterial segments were transferred to a 12×75 mm borosilicate glass culture tube containing 1 mL dissociation solution (145 mmol/L NaCl; 4 mmol/L KCl; 1 mmol/L MgCl2; 10 mmol/L HEPES; 0.05 mmol/L CaCl2), 10 mmol/L glucose; pH 7.3) and 0.5 mg/mL bovine serum albumin (BSA) and incubated for 10 minutes at room temperature (˜24° C.). The solution was then replaced with 1 mL dissociation solution containing 1 mg/mL papain (Sigma Aldrich) and 0.5 mg/mL dithiothreitol (Sigma Aldrich), and incubation was continued at 37° C. for 20 minutes. […]
Whole-cell currents were measured at room temperature using conventional whole-cell patch-clamp electrophysiology. […] The pipette solution for conventional patch clamp consisted of 10 mmol/L HEPES, 123.2 mmol/L KCl, 10 mmol/L NaCl, 5.5 mmol/L MgCl2, 0.2 mmol/L CaCl2) and 5 mmol/L HEDTA (adjusted to pH 7.2 with 16.8 mm KOH) and contained 3 μm free-Ca^2+ and 1 mmol/L free-Mg^2+, as calculated using the Max-Chelator program (Chris Patton; Stanford University; Stanford; CA; USA). […] Data were acquired using a Multiclamp 700B amplifier connected to a Digidata 1550B system and analyzed using Clampfit 11.1 software (Molecular Devices, San Jose, CA, USA).
NS309-induced ionic currents were measured in freshly isolated SMCs (FIG. 4A) from PAs in whole-cell patch-clamp experiments (FIGS. 4B and 4C).

[3] = cited from earlier work
[4] = system: Su+CH mouse model of PH; assay: Chronic treatment: RVSP, Fulton index and PA remodeling (histology, immunostaining); type: in vivo
Experimental: (§1) PH was induced by exposing C57BL6/J mice to chronic hypoxia (CH; 10% 02: 4 weeks) with concurrent treatment with the receptor tyrosine kinase inhibitor, SU5416 (20 mg·kg^−1), administered subcutaneously (s.c.) once a week (20). SU5416 was dissolved in DMSO/PEG 400 (50/50). Mice were exposed to CH conditions in a vinyl hypoxic chamber (Coy Laboratory Products; Inc. Grass Lake; MI; USA) connected to an auto purge airlock inlet. Oxygen concentration in the glove box was regulated by an oxygen controller and oxygen sensor (Coy Laboratory Products, Inc.). Control mice were maintained in room air for 4 weeks.
For PA remodeling studies, mice in the experimental group were treated with the IK/SK channel activator, SKA-31 (30 mg·kg^−1; i.p.), twice a day for the final 7 days of Su+CH exposure. Control mice were exposed to Su+CH for 4 weeks but were injected with vehicle instead of SKA-31. At the end of week 4 of Su+CH exposure, mice were euthanized with pentobarbital (90 mg·kg^−1; i.p.; UVA Hospital Pharmacy) and left lungs were perfused with the NO donor and fast-acting vasodilator, SNP (50 μmol/L; Sigma Aldrich), followed by incubation overnight at room temperature with 4% paraformaldehyde (PFA) for histology and immunostaining.
(§2) Mice were anesthetized with pentobarbital (50 mg·kg^−1; i.p.), and bupivacaine HCl (100 μL of 0.25% solution; s.c.) was used to numb the dissection site on the mouse. RVSP was measured as an indirect indicator of PAP (18, 21). Mice were cannulated with a Mikro-Tip pressure catheter (SPR-671; Millar Instruments; Houston; TX; USA), connected to a bridge amp (FE221) and a PowerLab 4/35 4-channel recorder (ADInstruments; Colorado Springs; CO; USA), through the external jugular vein into the right ventricle. Right ventricular pressure was acquired and analyzed using LabChart8 software (ADInstruments). In the subgroup of mice treated with SKA-31 (30 mg·kg^−1; i.p.), RVSP was measured before SKA-31 injection and 20 minutes after. A stable 3-minute recording was acquired for all animals, and a 1-minute continuous segment was used for data analysis. Where necessary, traces were digitally filtered using a low-pass filter at a cut-off frequency of 50 Hz. At the end of experiments, mice were euthanized, and their hearts were isolated for right ventricular hypertrophy analysis. Right ventricular hypertrophy was determined by calculating the Fulton index, a ratio of the right ventricular (RV) heart weight over the left ventricular (LV) plus septum (S) weight (RV/LV+S).
Isolated left lungs were perfused with PBS containing 50 μmol/L SNP and fixed in 4% PFA overnight at room temperature before paraffin embedding and sectioning. After sectioning paraffinized lungs, sections (5-μm thick) were deparaffinized and incubated in endogenous peroxidase (30%) for 30 minutes at room temperature, followed by a 5-minute wash with double-distilled H2O. For antigen retrieval, sections were microwaved in a citrate-based antigen unmasking solution (Vector Laboratories; Newark; CA; USA) for 20 minutes with brief pauses to avoid boiling. After allowing slides to cool in the antigen unmasking solution for 1 hour at room temperature, sections were permeabilized by incubating with 0.2% Triton-X for 30 minutes on a shaking rocker at room temperature, then blocked by incubating with 0.2% Triton-X, 5% normal donkey serum (ab7475; Abcam; Cambridge; MA; USA) and fish skin gelatin (FSG; Sigma Aldrich) for 1 hour. […]

[5] = Cardiac functional magnetic resonance imaging; type: in vivo, mouse; conditions: acute SKA-31 administration
[6] = reference (33); cited from earlier work
[7] = system: Su+CH mouse model of PH; assay: RVSP measurement after acute treatment; type: in vivo
Experimental: as §1, §2

[8] = system: IK/SK channels; conditions: reference (37); cited from earlier work
[9] = system: large PAs; conditions: rats exposed to chronic hypoxia; reference (49); cited from earlier work
[10] = 30 mg·kg−1 i.p. twice a day for 7 days

## Nc1ncnc2c1ncn2[C@@H]1O[C@H](COP(=O)(O)OP(=O)(O)OP(=O)(O)O)[C@@H](O)[C@H]1O [ATP, adenosine triphosphate]
[1]; CH+Su mice
  Dilation of PAs from CH+Su mice: unable to dilate

## Clc1ccccc1C(c1ccccc1)(c1ccccc1)n1cccn1 [TRAM-34]
[2]
  Effect on NS309-induced outward currents in SMCs: did not reduce
[1]; TRAM-34 1 μmol/L and Apa 300 nmol/L applied together, not different between N and Su+CH mice
  Constriction of small PAs: ~10%

## Nc1nc2c(ccc3ccccc32)s1 [SKA-31, naphtho[1,2-d]thiazol-2-ylamine]
[3]; reason for in vivo use instead of NS309, reference (33)
  Metabolism: favorable metabolism
[3]; references (37, 38)
  Half-life in vivo: longer half-life
[4]; [10]
  Collagen content of PAs (Masson's Trichrome) in Su+CH mice: reduced
  Fulton index (right ventricular hypertrophy) in Su+CH mice, chronic treatment: significantly lowered; also recorded: reduced
  α-actin immunostaining of PAs in Su+CH mice: reduced
[4]; 30 mg·kg−1 i.p. twice a day for 7 days, fourth week of Su+CH
  RVSP in Su+CH mice, chronic treatment: significantly lowered
[4]; chronic SKA-31
  Pulmonary artery lesions in Su+CH mice, chronic treatment: reduced
[5]
  Cardiac output: does not alter
  Ejection fraction: does not alter
  Heart rate: does not alter
  Stroke volume: does not alter
[6]
  Resting systemic blood pressure: lowered
[7]; 30 mg·kg−1 i.p., RVSP before and 20 minutes after injection, Su+CH mice
  RVSP in Su+CH mice, acute treatment: significantly reduced; also recorded: lowered
[7]; 30 mg·kg−1 i.p., normoxic/control mice
  RVSP in normal (N) mice, acute treatment: not in N mice; also recorded: not observed in normal mice; also recorded: not in control mice
[7]; acute SKA-31, Su+CH mice but not control mice
  PAP in Su+CH mice, acute treatment: lowered
[8]
  Potency as activator of IK/SK channels relative to NS309: less potent

## CCCCC[C@H](O)/C=C/[C@@H]1[C@@H](C/C=C\CCCC(=O)O)[C@H]2CO[C@@H]1C2 [U46619]
[1]; U46619 30 nmol/L, both normal and PH groups
  Arteries showing a constriction: More than 95%

## CCn1c(=O)n(CC)c2c(Cl)c(Cl)ccc21 [NS4591]
[9]
  Dilatory response of large PAs after chronic hypoxia: decreases

## NC(=NCCC[C@H](N)C(=O)O)N[N+](=O)[O-] [L-NNA]
[1]; L-NNA 100 μmol/L, Su+CH mice
  Constriction of PAs from Su+CH mice: unable constrict
[1]; L-NNA 100 μmol/L, normoxic mice
  Constriction of PAs from N mice: ~20%
